Like-named read-outs stand apart in the source and are kept apart here.
Legend:
C. albicans ATCC 10231 = test: Antifungal MIC, CLSI M27-A3 microbroth dilution; format: cell-based, Candida albicans; settings: Candida albicans, ATCC10231, C. albicans ATCC 10231, resistant to FLC, ITC, and VOR, read-out: MIC
Experimental: (§1) In vitro MIC testing was performed according to the CLSI M27-A3 standard microbroth dilution methodology for the susceptibility testing of yeasts with minor modifications.

C. albicans ATCC 2310 = test: Antifungal MIC, CLSI M27-A3 microbroth dilution; format: cell-based, Candida albicans; settings: Candida albicans, ATCC2310, C. albicans ATCC 2310, susceptible to FLC, ITC, and VOR, read-out: MIC
Experimental: as §1

C. albicans ATCC 64124 = test: Antifungal MIC, CLSI M27-A3 microbroth dilution; format: cell-based, Candida albicans; settings: Candida albicans, ATCC64124, C. albicans ATCC 64124, resistant to FLC, ITC, and VOR, read-out: MIC
Experimental: as §1

C. albicans ATCC 1003 = test: Antifungal MIC, CLSI M27-A3 microbroth dilution; format: cell-based, Candida albicans; settings: Candida albicans, ATCC1003, read-out: MIC
Experimental: as §1

C. albicans ATCC 2876 = test: Antifungal MIC, CLSI M27-A3 microbroth dilution; format: cell-based, Candida albicans; settings: Candida albicans, ATCC2876, C. albicans ATCC 2876, susceptible to FLC, ITC, and VOR, read-out: MIC
Experimental: as §1

C. albicans ATCC 90819 = test: Antifungal MIC, CLSI M27-A3 microbroth dilution; format: cell-based, Candida albicans; settings: Candida albicans, ATCC90819, C. albicans ATCC 90819, resistant to FLC, ITC, and VOR, read-out: MIC
Experimental: as §1

C. albicans ATCC 1237 = test: Antifungal MIC, CLSI M27-A3 microbroth dilution; format: cell-based, Candida albicans; settings: Candida albicans, ATCC1237, C. albicans ATCC 1237, resistant to FLC, ITC, and VOR, read-out: MIC
Experimental: as §1

E. coli MC1061 = test: Antibacterial MIC, double-dilution method; format: cell-based; settings: Escherichia coli, strain G, Gram-negative, read-out: MIC
Experimental: (§2) MIC values were determined against a variety of Gram-positive (strains A-D) and Gram-negative (E-J) bacterial and mycobacterial (K) strains using the double-dilution method, as previously published. Preliminary screening was performed using 500 μM of each compound.

A. baumannii ATCC 19606 = test: Antibacterial MIC, double-dilution method; format: cell-based; settings: Acinetobacter baumannii, ATCC19606
Experimental: as §2

B. subtilis 168 = test: Antibacterial MIC, double-dilution method; format: cell-based; settings: Bacillus subtilis, strain A, Gram-positive
Experimental: as §2

M. smegmatis MC2-155 = test: Antibacterial MIC, double-dilution method; format: cell-based; settings: mycobacterial
Experimental: as §2

K. pneumoniae ATCC 27736 = test: Antibacterial MIC, double-dilution method; format: cell-based; settings: Klebsiella pneumoniae, ATCC27736
Experimental: as §2

E. cloacae ATCC 13047 = test: Antibacterial MIC, double-dilution method; format: cell-based; settings: Enterobacter cloacae, ATCC13047
Experimental: as §2

S. enterica ATCC 14028 = test: Antibacterial MIC, double-dilution method; format: cell-based; settings: Salmonella enterica, ATCC14028
Experimental: as §2

[1] = tested on: L. monocytogenes ATCC 19115; test: Antibacterial MIC, double-dilution method; format: cell-based; settings: Listeria monocytogenes, ATCC19115, strain B, Gram-positive, read-out: MIC
Experimental: as §2

MRSA = test: Antibacterial MIC, double-dilution method; format: cell-based; settings: Staphylococcus aureus
Experimental: as §2

P. aeruginosa ATCC 27853 = test: Antibacterial MIC, double-dilution method; format: cell-based; settings: Pseudomonas aeruginosa, ATCC27853
Experimental: as §2

VRE = test: Antibacterial MIC, double-dilution method; format: cell-based; settings: Enterococcus, strain D, Gram-positive, read-out: MIC
Experimental: as §2

[2] = C. albicans ATCC 1003, converted from μg/mL
[3] = strain E, Gram-negative, range 0.5 to 500 μM, read-out: MIC
[4] = Mycolicibacterium smegmatis, MC2155, strain K, converted from μM, read-out: MIC
[5] = Mycolicibacterium smegmatis, MC2155, strain K, range 0.5 to 500 μM, read-out: MIC
[6] = strain H, Gram-negative, range 0.5 to 500 μM, read-out: MIC
[7] = strain F, Gram-negative, range 0.5 to 500 μM, read-out: MIC
[8] = strain J, Gram-negative, range 0.5 to 500 μM, read-out: MIC
[9] = strain C, Gram-positive, converted from μM, read-out: MIC
[10] = strain C, Gram-positive, range 0.5 to 500 μM, read-out: MIC
[11] = strain I, Gram-negative, range 0.5 to 500 μM, read-out: MIC
[12] = strain E, Gram-negative, converted from μM, read-out: MIC
[13] = strain H, Gram-negative, converted from μM, read-out: MIC
[14] = strain F, Gram-negative, converted from μM, read-out: MIC
[15] = strain J, Gram-negative, converted from μM, read-out: MIC
[16] = strain I, Gram-negative, converted from μM, read-out: MIC

Row | Structure (SMILES) | MIC (C. albicans ATCC 10231; converted from μg/mL) | MIC (C. albicans ATCC 10231) | MIC (C. albicans ATCC 2310; converted from μg/mL) | MIC (C. albicans ATCC 2310) | MIC (C. albicans ATCC 64124; converted from μg/mL) | MIC (C. albicans ATCC 64124) | MIC (C. albicans ATCC 1003; [2]) | MIC (C. albicans ATCC 1003) | MIC (C. albicans ATCC 2876; converted from μg/mL) | MIC (C. albicans ATCC 2876) | MIC (C. albicans ATCC 90819; converted from μg/mL) | MIC (C. albicans ATCC 90819) | MIC (C. albicans ATCC 1237; converted from μg/mL) | MIC (C. albicans ATCC 1237) | MIC (E. coli MC1061; converted from μM) | MIC (E. coli MC1061; range 0.5 to 500 μM) | MIC (A. baumannii ATCC 19606; [3]) | MIC (M. smegmatis MC2-155; [4]) | MIC (K. pneumoniae ATCC 27736; [6]) | MIC (E. cloacae ATCC 13047; [7]) | also measured
1 | Cl.Cl.N=C(N)N/N=C/c1ccc(-c2ccc(/C=N/NC(=N)N)cc2)cc1 [Compound 3A, (2E,2′E)-2,2′-([1,1′-Biphenyl]-4,4′-diylbis(methanylylidene))bis(hydrazine-1-carboximidamide) dihydrochloride] | 39.5 µM | 15.6 µg/mL | > 79.2 µM | > 31.3 µg/mL | > 79.2 µM | > 31.3 µg/mL | 19.7 µM | 7.8 µg/mL | 19.7 µM | 7.8 µg/mL | > 79.2 µM | > 31.3 µg/mL | 39.5 µM | 15.6 µg/mL | > 198 µg/mL | > 500 µM | > 500 µM | > 198 µg/mL | > 500 µM | > 500 µM | MIC (A. baumannii ATCC 19606): > 198 µg/mL; MIC (B. subtilis 168; converted from μM): > 198 µg/mL; MIC (B. subtilis 168; range 0.5 to 500 μM): > 500 µM; MIC (M. smegmatis MC2-155; [5]): > 500 µM; MIC (K. pneumoniae ATCC 27736): > 198 µg/mL; MIC (E. cloacae ATCC 13047): > 198 µg/mL; MIC (S. enterica ATCC 14028): > 198 µg/mL; MIC (S. enterica ATCC 14028; [8]): > 500 µM; MIC ([1]; converted from μM): 0.4 µg/mL; MIC ([1]; range 0.5 to 500 μM): 1 µM; MIC (MRSA; [9]): 1.5 µg/mL; MIC (MRSA; [10]): 3.9 µM; MIC (P. aeruginosa ATCC 27853): > 198 µg/mL; MIC (P. aeruginosa ATCC 27853; [11]): > 500 µM; MIC (VRE; converted from μM): 0.8 µg/mL; MIC (VRE; range 0.5 to 500 μM): 2 µM
2 | C/C(=N\NC(=N)N)c1cccc(/C(C)=N/NC(=N)N)c1.Cl.Cl [Compound 4H, (2E,2′E)-2,2′-(1,3-Phenylenebis(ethan-1-yl-1-ylidene))bis(hydrazine-1-carboximidamide) dihydrochloride] | > 90.1 µM | > 31.3 µg/mL | 90.1 µM | 31.3 µg/mL | > 90.1 µM | > 31.3 µg/mL | > 90.1 µM | > 31.3 µg/mL | 22.5 µM | 7.8 µg/mL | > 90.1 µM | > 31.3 µg/mL | 90.1 µM | 31.3 µg/mL | > 173 µg/mL | > 500 µM | > 500 µM | 5.4 µg/mL | > 500 µM | > 500 µM | MIC (A. baumannii ATCC 19606; [12]): > 173 µg/mL; MIC (B. subtilis 168; converted from μM): 86.8 µg/mL; MIC (B. subtilis 168; range 0.5 to 500 μM): 250 µM; MIC (M. smegmatis MC2-155; Mycolicibacterium smegmatis, MC2155, strain K, range 0.5 to 500 μM): 15.6 to 31.3 µM; MIC (M. smegmatis MC2-155; strain K, range 0.5 to 500 μM, dihydrochloride): (15.6) μM; MIC (K. pneumoniae ATCC 27736; [13]): > 173 µg/mL; MIC (E. cloacae ATCC 13047; [14]): > 173 µg/mL; MIC (S. enterica ATCC 14028; [15]): 21.7 to 86.8 µg/mL; MIC (S. enterica ATCC 14028; [8]): 62.5 to 250 µM; MIC ([1]; converted from μM): 86.8 µg/mL; MIC ([1]; range 0.5 to 500 μM): 250 µM; MIC (MRSA; [9]): > 173 µg/mL; MIC (MRSA; [10]): > 500 µM; MIC (P. aeruginosa ATCC 27853; [16]): 173 µg/mL; MIC (P. aeruginosa ATCC 27853; [11]): 500 µM; MIC (VRE; converted from μM): 43.4 µg/mL; MIC (VRE; range 0.5 to 500 μM): 125 µM
3 | C/C(=N\NC(=N)N)c1ccc(/C(C)=N/NC(=N)N)cc1.Cl.Cl [Compound 4G, (2E,2′E)-2,2′-(1,4-Phenylenebis(ethan-1-yl-1-ylidene))bis(hydrazine-1-carboximidamide) dihydrochloride] | > 90.1 µM | > 31.3 µg/mL | > 90.1 µM | > 31.3 µg/mL | 90.1 µM | 31.3 µg/mL | > 90.1 µM | > 31.3 µg/mL | > 90.1 µM | > 31.3 µg/mL | > 90.1 µM | > 31.3 µg/mL | > 90.1 µM | > 31.3 µg/mL | > 173 µg/mL | > 500 µM | 500 µM | > 173 µg/mL | 500 µM | > 500 µM | MIC (A. baumannii ATCC 19606; [12]): 173 µg/mL; MIC (B. subtilis 168; converted from μM): 86.8 µg/mL; MIC (B. subtilis 168; range 0.5 to 500 μM): 250 µM; MIC (M. smegmatis MC2-155; [5]): > 500 µM; MIC (K. pneumoniae ATCC 27736; [13]): 173 µg/mL; MIC (E. cloacae ATCC 13047): > 173 µg/mL; MIC (S. enterica ATCC 14028; [15]): 86.8 to 173 µg/mL; MIC (S. enterica ATCC 14028; [8]): 250 to 500 µM; MIC ([1]; converted from μM): 86.8 µg/mL; MIC ([1]; range 0.5 to 500 μM): 250 µM; MIC (MRSA): > 173 µg/mL; MIC (MRSA; [10]): > 500 µM; MIC (P. aeruginosa ATCC 27853; [16]): 86.8 µg/mL; MIC (P. aeruginosa ATCC 27853; [11]): 250 µM; MIC (VRE; converted from μM): 43.4 µg/mL; MIC (VRE; range 0.5 to 500 μM): 125 µM
4 | C/C(=N\NC(=N)N)c1ccc(Oc2ccc(/C(C)=N/NC(=N)N)cc2)cc1.Cl.Cl [Compound 4E, (2E,2′E)-2,2′-((Oxybis(4,1-phenylene))bis(ethan-1-yl-1-ylidene))bis(hydrazine-1 carboximidamide), dihydrochloride] | 17.8 µM | 7.8 µg/mL | 17.8 µM | 7.8 µg/mL | 17.8 µM | 7.8 µg/mL | 17.8 µM | 7.8 µg/mL | 8.9 µM | 3.9 µg/mL | 17.8 µM | 7.8 µg/mL | 17.8 µM | 7.8 µg/mL | 54.9 µg/mL | 125 µM | 62.5 µM | 54.9 to 110 µg/mL | 62.5 µM | 250 µM | MIC (A. baumannii ATCC 19606; [12]): 27.5 µg/mL; MIC (M. smegmatis MC2-155; [5]): 125 to 250 µM; MIC (K. pneumoniae ATCC 27736; [13]): 27.5 µg/mL; MIC (E. cloacae ATCC 13047; [14]): 110 µg/mL; MIC ([1]; converted from μM): 27.5 µg/mL; MIC ([1]; range 0.5 to 500 μM): 62.5 µM; MIC (P. aeruginosa ATCC 27853; [16]): 27.5 µg/mL; MIC (P. aeruginosa ATCC 27853; [11]): 62.5 µM; MIC (VRE; converted from μM): 1.7 µg/mL; MIC (VRE; range 0.5 to 500 μM): 3.9 µM
